Assays:
IL-3 = assay: PT-18β cell proliferation assay (WST-1), IL-3 as non-γc-cytokine negative control; format: cell-based, murine; settings: PT-18β cells, 1 nM cytokine, BNZ-γ as 1:20 or 1:60 dilution of HEK293T supernatant, 2 days
Description: (§1) For each of the six γc-cytokines, indicator cell lines: NK92, a human NK cell line NK92 available by American Type Culture Collection (ATCC) (catalog #CRL-2407), CTLL-2, a murine CD8 T cells line available from ATCC, and PT-18, a murine mast cell line and its subclone PT-18β, is transfected with human IL-2Rβ gene to make the cells responsive to IL-2 and IL-15 (Tagaya et al., 1996, EMBO J. 15:4928-39), and is used to quantitatively determine the γc-cytokine's growth-promoting activity (See Current protocols in Immunology from Wiley and Sons for a methodological reference).
(§2) Once the appropriate doses of the cytokine that yield the 50% and 95% maximum response from the indicator cell line is determined, various concentrations (ranging from 1 pM to 10 μM) of the purified or synthesized custom derivative peptide is added to each well containing the cytokine and indicator cells. The reduction in light absorbance at 450 nm is used as an indicator of inhibition of cytokine-stimulated cellular proliferation. Typically, the cells are stimulated by the cytokines such that the absorbance of the well containing indicator cell line and the cytokine is between 2.0 and 3.0, which is reduced to a range of 0.1 to 0.5 by the addition of inhibitory peptides. […]
(§3) The growth-responses of the cells were determined 2 days after the introduction of BNZ-γ peptide and the cytokine using the WST-1 assay. […]

IL-9 = assay: PT-18β cell proliferation assay (WST-1), IL-9; format: cell-based, murine; settings: PT-18β cells, 1 nM cytokine, BNZ-γ as 1:20 or 1:60 dilution of HEK293T supernatant, 2 days
Description: as §1, §2, §3

IL-15 = assay: PT-18β cell proliferation assay (WST-1), IL-15; format: cell-based, murine; settings: PT-18β cells, 1 nM cytokine, BNZ-γ as 1:20 or 1:60 dilution of HEK293T supernatant, 2 days
Description: as §1, §2, §3

IL-4 = assay: PT-18β cell proliferation assay (WST-1), IL-4; format: cell-based, murine; settings: PT-18β cells, 1 nM cytokine, BNZ-γ as 1:20 or 1:60 dilution of HEK293T supernatant, 2 days
Description: as §1, §2, §3

STAT5 = assay: IL-15-stimulated tyrosine phosphorylation of STAT5 in PT-18β cells (anti-phospho-STAT5 immunoblot); format: cell-based, murine; settings: PT-18β cells stimulated by IL-15, presence vs absence of BNZ-γ peptide
Description: In addition to stimulating cellular proliferation, binding of the γc-cytokines to their receptors causes a diverse array of intracellular events. (Rochman et al. 2009 Nat. Rev. Immunol. 9:480-90, Pesu et al. 2005 Immunol. Rev. 203:127-142.) Immediately after the cytokine binds to its receptor, a tyrosine kinase called Jak3 (Janus-kinase 3) is recruited to the receptor at the plasma membrane. This kinase phosphorylates the tyrosine residues of multiple proteins including the γc-subunit, STAT5 (Signal Transducer and Activator of Transcription 5) and subunits of the PI3 (Phosphatidylinositol 3) kinase. Among these, the phosphorylation of STAT5 has been implicated in many studies as being linked to the proliferation of cells initiated by the γc-cytokine. (Reviewed in Hennighausen and Robinson, 2008 Genes Dev. 22:711-21.) In accordance with these published data, whether or not the BNZ-γ peptide inhibits the tyrosine phosphorylation of STAT5 molecule in PT-18β cells stimulated by IL-15 was examined (results shown in FIG. 4).
PT-18β cells were stimulated by IL-15 in the presence or absence of BNZ-γ peptide. Cytoplasmic proteins were extracted from the cells according to a conventional method as described in Tagaya et al. 1996 EMBO J. 15:4928-39. […]

humanized NSG mice [1] = assay: Immunohistochemistry of humanized NSG mouse skin tissue for human CD8 T cells; format: in vivo; settings: 7-weeks post-transplant with vs without BNZ-γ treatment
Description: In order to characterize the nature of immune attack in the skin tissue and around the hair follicles, immunohistochemistry studies were conducted of the skin tissue of humanized NSG mice 3-weeks (pre-BNZ-γ) and 7-weeks (with or without BNZ-γ treatment) after transplantation of 2 million huPBMCs. The tissue was fixed for 24 hours in 4% formalin (Sigma) and then moved to 70% ethanol for at least 24 hours before being processed. Tissue was then embedded in paraffin following dehydration for two washes of two hours each in 70%, 90%, and 100% ethanol, then cleared in xylene twice for two hours each, and infiltrated with melted paraplast plus at 60 C two times for two hours. Paraffin embedded tissues were stored at room temperature prior to sectioning and staining. An anti-human CD8 antibody (BioCare Medical CRM 311C) or isotype control was used for staining of the tissues based on the standard procedure for IHC.

humanized NSG mice [2] = system: humanized NSG mice
Description: In this experiment, NSG mice were transplanted with 2 million huPBMCs on study day 0, with therapeutic treatment beginning 35-days post-transplant. Mice were treated twice weekly with IV injections of PBS control (n=5), BNZ-γ at 2 mg/kg (n=5), anti-IL-2 antibody at 5 mg/kg (n=3), anti-IL-15 antibody at 5 mg/kg (n=3), or combination anti-IL-2 and anti-IL-15 antibody each at 5 mg/kg (n=3) starting on day 35 for a treatment duration of 4 weeks.
Levels of IL-6 and IFNγ were also measured in this experiment. […] Cytokine levels were determined using sera collected on day 50, except for one animal in the anti-IL-2 antibody treatment group (collected on day 45), one mouse in the PBS control untreated group (collected on day 45), and two mice from the PBS control untreated group (collected on day 40) to ensure a blood sample was collected before each became fatally ill.

[3] = sera collected on day 50 (some earlier), vs PBS control

Substance: I-K-E-F-L-Q-R-F-I-H-I-V-Q-S-I-I-N-T-S (IKEFLQRFIHIVQSIINTS) [BNZ-γ]
- growth-promoting activity of IL-3 (IL-3): not inhibited
- growth-promoting activity of IL-9 (IL-9): significantly (p<0.01 Student's T test) reduced
- growth-promoting activity of IL-15 (IL-15): significantly (p<0.01 Student's T test) reduced
- cellular proliferation stimulated by IL-4 (IL-4): not affected
- tyrosine phosphorylation of STAT5 (STAT5): markedly reduced
- number of infiltrated human CD8 T cells in skin tissue (humanized NSG mice [1]): significant reduction in the number of infiltrated CD8 cells
- survival of the BNZ-γ group relative to combination antibody treatment (humanized NSG mice [2]; BNZ-γ 2 mg/kg IV twice weekly, 4 weeks from day 35, the words are printed of the combination, BNZ-γ being the more effective (p=0.001)): less effective than BNZ-γ
- regrowth of hair (humanized NSG mice [2]; approximately two weeks after treatment was completed (~day 63), 4-week treatment from day 35): greatest degree of hair regrowth of all 4 treatment groups
- level of IFNγ in sera (humanized NSG mice [2]; [3]): most effective
- level of IL-6 in sera (humanized NSG mice [2]; [3]): most effective

From patent publication US12030936B2, “Modulating the effects of gamma-c-cytokine signaling for the treatment of alopecia and alopecia associated disorders” (BIONIZ THERAPEUTICS, LLC, priority 2019, dated 2024)
